As usually defined, the IC50 is the midpoint of a concentration-inhibition curve. What is called melting point is the temperature, or range, at which the solid turns liquid.

Data set [1] has as its target T1, interaction between HIF-1α and p300 (His-HIF-1α / GST-p300) (Homo sapiens, UniProt Q09472+Q16665).
T1 construct: corresponding to the C-terminal 390 amino acids into vector pET28a; A plasmid containing the N-terminal 595 amino acids of human p300; made in house; host or cells: E. coli
Kind of data set: Primary assay: fluorescence-based (DELFIA) screening assay for inhibition of the HIF-1α/p300 interaction. It counts as binding. On the procedure:
Candidate compounds were assessed for their ability to inhibit the interaction between HIF-1α and p300 using a high throughput fluorescence-based screening assay (DELFIA) as follows.
A plasmid expressing His-HIF-1α fusion protein was constructed by PCR, by amplifying and subcloning a fragment of the human HIF-1α cDNA (NCBI GenBank, accession number AH006957) corresponding to the C-terminal 390 amino acids into vector pET28a (Novagen®, Madison, Wis., USA). A plasmid containing the N-terminal 595 amino acids of human p300 (NCBI GenBank, accession number U01877) inserted into vector pGEX2T (Pharmacia®, Little Chalfont, Bucks, UK) was used for the production of GST-p300 fusion protein. The recombinant proteins were produced in E. coli. His-HIF-1α was purified using Ni-NTA agarose beads, according to manufacture's method (Qiagen®, Crawley, West Sussex, UK). GST-p300 was purified using Glutathione-sepharose beads (Amersham Pharmacia®, Little Chalfont, Bucks, UK) according to manufacturer's instructions. A titration of every batch of p300 was carried out in order to determine the optimum dilution of the protein to obtain at least a 10:1 ratio signal to noise in the binding assay.
The assay was performed in 96-well Polysorb plates (Nalge Nunc International®, Rochester, N.Y., USA) as follows. Plates were coated with His-HIF-1α at 50 ng/well in […] and incubated overnight at 4° C. The plates were then washed 3 times with deionized water and blocked with 100 μL/well 3% BSA in PBS for 3 hours at 4° C. After washing 3 times as before, GST-p300 was added at the appropriate dilution (1:800 in this screening) in binding buffer (50 mM HEPES pH 7.5, 50 mM NaCl, 0.1% BSA, 0.5 mM DTT). The reaction was incubated at room temperature for 1 hour. Plates were washed 3 times and anti-GST Europium-conjugated antibody (from Wallac®, Turku, Finland) was added at 50 ng/well in […]. After 45 minutes incubation, plates were washed 3 times as before. Then, 100 μL/well enhancement solution (from Wallac®, Catalog No. 1244-105) was added and allowed to react for 15 minutes at room temperature. Plates were read on a Victor 2 plate reader (from Wallac®).

Data set [2] relates to VEGF promoter (VEGF-luciferase reporter) in Hepatoma 3B (hep3B) cells. Kind of data set: VEGF-luciferase cell-based reporter assay, desferoxamine-induced, Hepatoma 3B (hep3B) cells. As to conditions: 15 h, read-out: Secondary Assay VEGF-luciferase IC50. An excerpt: This cell-based reporter assay involves the use of a luciferase reporter gene under the direct control of the VEGF promoter. Induction of HIF using desferoxamine leads to the transcription of luciferase through activation of the VEGF (Vascular Endothelial Growth Factor) promoter, which in turn leads to an increase in luciferase activity, which can be measured using most commercially available luciferase assay kits. Molecules that disrupt the HIF complex cause inhibition of HIF-dependent luciferase activation and lead to a reduction in luciferase activity. This assay allows the activity of the compounds to be assessed against the VEGF promoter, which is essential for VEGF production and subsequent angiogenesis.
Hepatoma 3B (hep3B) cells (ATCC Ref. No. HB-8064) were plated in 24-well plates at 2×10^4/well in 500 μL DMEM/10% FCS, and were transfected the following day using Fugene 6 (Roche Biochemicals®, Lewes, E. Sussex, UK). Transfection mixtures per well contained 6 μL 10% Fugene, 200 ng VEGF-luciferase reporter (rat VEGF promoter, NCBI GenBank, accession number U22373, Levy et al., 1995) and 2 ng TK-renilla (Promega®, Madison, Wis., USA) (for transfection efficiency control). Transfection was performed as recommended by manufacturer. Compounds were added the following day. After 1 hour incubation at 37° C., desferoxamine (Sigma®, Dorset, UK) was added at 100 μM to induce HIF activity. Duplicate wells without desferoxamine were run in parallel. Cells were harvested 15 hours later, and luciferase activity was measured using Dual Luciferase Assay System (Promega®, see also Technical Manual, Part #TM040, Instructions for Use of Products E1910 and E1960, revised May/1999).
For orientation: Reporter assays use an easily measured gene product as a stand-in for the process of interest.

In a further data set the test system is VEGF. Kind of data set: VEGF-ELISA (Quantikine sandwich immunoassay of VEGF in cell supernatant). It counts as cell-based. The note with it: Homo sapiens, 17 h; read-out: Secondary Assay VEGF-ELISA IC50. On the procedure: This assay employs the quantitative sandwich enzyme immunoassay technique. A monoclonal antibody (R&D Systems®, Abingdon, Oxon, UK) specific for VEGF was pre-coated onto a microplate. To this was added a sample containing VEGF. After washing, a second anti-VEGF antibody coupled to horseradish peroxidase was added. […] Typically, cells were plated at a concentration of 2.5×10^4 cells/well, and incubated with either 100 μM desferroxamine or at 0.1% O2 for 17 hours at 37° C. 200 μL of supernatant were removed and the VEGF quantitated using the Quantikine® ELISA kit from R&D Systems® (catalog # DVEOO) exactly according to the manufacturer's instructions. The assay is calibrated each time using recombinant human VEGF.
A general note: ELISA stands for enzyme-linked immunosorbent assay.

T1 sequence (Q16665 437-826 limits assumed): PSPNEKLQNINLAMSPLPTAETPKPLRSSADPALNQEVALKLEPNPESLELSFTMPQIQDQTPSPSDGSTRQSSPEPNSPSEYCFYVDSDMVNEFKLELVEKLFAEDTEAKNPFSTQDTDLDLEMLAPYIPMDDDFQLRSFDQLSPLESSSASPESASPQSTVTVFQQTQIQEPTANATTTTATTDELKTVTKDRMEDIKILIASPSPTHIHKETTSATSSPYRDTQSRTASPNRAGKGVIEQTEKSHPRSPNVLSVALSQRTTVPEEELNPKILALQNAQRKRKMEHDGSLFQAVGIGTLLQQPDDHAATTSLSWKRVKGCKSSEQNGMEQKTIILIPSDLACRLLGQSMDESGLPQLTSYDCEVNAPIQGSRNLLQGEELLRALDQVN
T1 sequence (Q09472 1-595 limits assumed): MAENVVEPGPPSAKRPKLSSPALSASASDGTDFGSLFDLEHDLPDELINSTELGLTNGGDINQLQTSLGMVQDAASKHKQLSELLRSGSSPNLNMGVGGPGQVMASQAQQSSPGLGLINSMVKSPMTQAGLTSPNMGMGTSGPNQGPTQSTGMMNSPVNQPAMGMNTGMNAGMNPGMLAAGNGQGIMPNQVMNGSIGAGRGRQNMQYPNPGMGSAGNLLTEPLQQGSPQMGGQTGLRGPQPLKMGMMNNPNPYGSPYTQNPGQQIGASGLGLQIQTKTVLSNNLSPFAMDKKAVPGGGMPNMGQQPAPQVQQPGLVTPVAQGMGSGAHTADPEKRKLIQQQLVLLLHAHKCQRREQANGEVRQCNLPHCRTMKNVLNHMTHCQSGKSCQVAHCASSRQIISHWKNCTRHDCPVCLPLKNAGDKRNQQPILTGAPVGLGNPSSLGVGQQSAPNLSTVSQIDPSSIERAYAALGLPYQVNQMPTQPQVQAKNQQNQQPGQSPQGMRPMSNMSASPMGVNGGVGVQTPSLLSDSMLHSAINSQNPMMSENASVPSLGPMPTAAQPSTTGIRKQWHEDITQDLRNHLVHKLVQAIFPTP

Take `O=C1NC(=S)NC(=O)C1=Cc1ccc([N+](=O)[O-])s1` [PX074038, 5-(5-Nitro-thiophen-2-ylmethylene)-2-thioxo-dihydro-pyrimidine-4,6-dione]: the melting point is 285 °C (dec.). For the same molecule, inhibition in data set [1] was half-maximal at 20 µM (IC50). In addition, the IC50 in data set [2] is 50 µM.

Take `O=C1NC(=S)NC(=O)C1=Cc1cc(Br)cs1` [PX089648, 5-(4-Bromo-thiophen-2-ylmethylene)-2-thioxo-dihydro-pyrimidine-4,6-dione]: the melting point was 230 °C (dec.). For the same molecule, in data set [1], the IC50 is 45 µM. In addition, the IC50 in the data set with VEGF turned out to be 32.5 µM. Also, the IC50 in data set [2] was found to be 30 µM.

For the molecule `O=C1NC(=S)NC(=O)C1=Cc1ccc[nH]1` [PX089639, 5-(1H-pyrrol-2-ylmethylene)-2-thioxo-dihydro-pyrimidine-4,6-dione], the melting point was 280 °C (dec.). In data set [1], the IC50 was found to be 20 µM. For the same molecule, the IC50 with VEGF worked out at 50 µM. The IC50 in data set [2] stood at 25 µM.
